Laboratory results reported in ChEMBL document CHEMBL1201862, “PubChem BioAssay data set” (2004).
One block for each molecule: values may come before it. Calls of active or inactive are those of the source.

Tests used:
Format in all cases: functional
[1] = target: T1, High affinity choline transporter 1 (Homo sapiens, UniProt Q9GZV3); test: CHT inhibitors, dose response, cell-based, 5-point CRC, membrane potential dye (AID 504840)
T1 sequence (Q9GZV3 whole entry): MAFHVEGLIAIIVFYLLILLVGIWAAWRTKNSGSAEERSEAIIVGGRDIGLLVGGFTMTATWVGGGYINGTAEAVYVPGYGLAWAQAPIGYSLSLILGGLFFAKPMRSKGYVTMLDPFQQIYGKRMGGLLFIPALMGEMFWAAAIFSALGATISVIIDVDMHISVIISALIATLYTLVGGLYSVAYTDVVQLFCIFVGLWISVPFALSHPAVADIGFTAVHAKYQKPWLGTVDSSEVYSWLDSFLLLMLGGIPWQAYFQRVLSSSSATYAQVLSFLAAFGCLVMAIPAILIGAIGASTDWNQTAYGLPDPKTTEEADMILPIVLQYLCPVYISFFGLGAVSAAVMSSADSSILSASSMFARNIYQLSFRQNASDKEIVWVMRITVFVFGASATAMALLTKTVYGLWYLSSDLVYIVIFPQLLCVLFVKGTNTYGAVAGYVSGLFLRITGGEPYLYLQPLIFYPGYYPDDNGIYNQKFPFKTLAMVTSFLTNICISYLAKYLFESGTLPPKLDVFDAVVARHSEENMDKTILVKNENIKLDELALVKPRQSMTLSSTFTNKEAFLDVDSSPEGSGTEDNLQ

[2] = target: T1, High affinity choline transporter 1; test: CHT inhibitors, dose response, cell-based, 10-point CRC, membrane potential dye (AID 588401);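 also: membrane potential dye fluorescence of choline-evoked depolarization via CHT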
[3] = target: ALK tyrosine kinase receptor (Homo sapiens, UniProt Q9UM73);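 also: ALK tested as one member of a kinase panel screen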
[4] = target: Serine/threonine-protein kinase pim-1 (Homo sapiens, UniProt P11309)
[5] = target: Vascular endothelial growth factor receptor 1 (Homo sapiens, UniProt P17948);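 also: measured within a kinome-wide profiling panel, FLT1 as the panel member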
[6] = target: Mitogen-activated protein kinase 8 (Homo sapiens, UniProt P45983);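 also: value comes from one member of a kinome-wide kinase profiling panel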
[7] = target: Dual specificity mitogen-activated protein kinase kinase 2 (Homo sapiens, UniProt P36507); test: Navigating the Kinome. Panel member name: MAP2K2
Aurora kinase A = Aurora kinase A (Homo sapiens, UniProt O14965);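 also: value from the Navigating the Kinome kinase panel profiling, panel entry STK6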
[8] = target: Inhibitor of nuclear factor kappa-B kinase subunit epsilon (Homo sapiens, UniProt Q14164); test: Navigating the Kinome. Panel member name: IKBKE
[9] = target: Mitogen-activated protein kinase kinase kinase kinase 4 (Homo sapiens, UniProt O95819)
[10] = target: cAMP-dependent protein kinase catalytic subunit PRKX (Homo sapiens, UniProt P51817)
Chain of cAMP-dependent protein kinase catalytic subunit PRKX (P51817 whole entry): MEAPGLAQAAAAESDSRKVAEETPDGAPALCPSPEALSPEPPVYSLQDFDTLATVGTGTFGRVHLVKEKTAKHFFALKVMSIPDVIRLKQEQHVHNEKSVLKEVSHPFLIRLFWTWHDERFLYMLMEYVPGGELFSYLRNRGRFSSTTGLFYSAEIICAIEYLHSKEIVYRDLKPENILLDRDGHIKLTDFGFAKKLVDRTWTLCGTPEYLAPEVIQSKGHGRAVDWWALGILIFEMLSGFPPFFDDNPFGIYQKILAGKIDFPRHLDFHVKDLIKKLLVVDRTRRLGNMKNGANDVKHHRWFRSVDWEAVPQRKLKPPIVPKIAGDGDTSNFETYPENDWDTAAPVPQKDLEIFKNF

[11] = target: Leucine-rich repeat serine/threonine-protein kinase 2 (Homo sapiens, UniProt Q5S007);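 also: value from a broad kinome-wide panel profiling study in which LRRK2 was one of the kinases tested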
[12] = target: Glycogen synthase kinase-3 beta (Homo sapiens, UniProt P49841);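 also: value comes from a broad kinome profiling panel, with GSK3B as the panel member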
[13] = target: Cyclin-dependent kinase 9 (Homo sapiens, UniProt P50750);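 also: value from the CDK9 entry of a kinome-spanning kinase panel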
[14] = target: Tyrosine-protein kinase ABL1 (Homo sapiens, UniProt P00519)
[15] = target: Leukocyte tyrosine kinase receptor (Homo sapiens, UniProt P29376); test: Navigating the Kinome. Panel member name: LTK
[16] = target: BDNF/NT-3 growth factors receptor (Homo sapiens, UniProt Q16620);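 also: NTRK2 measured as one member of a broad kinome-wide kinase profiling panel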
[17] = target: Serine/threonine-protein kinase Chk1 (Homo sapiens, UniProt O14757);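 also: measured as one member of a kinome-wide kinase profiling panel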
[18] = target: Serine/threonine-protein kinase PAK 4 (Homo sapiens, UniProt O96013);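 also: value obtained within a kinome profiling panel in which PAK4 was one of the panel members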
[19] = target: Dual specificity tyrosine-phosphorylation-regulated kinase 1B (Homo sapiens, UniProt Q9Y463); test: Navigating the Kinome. Panel member name: DYRK1B
[20] = target: Tyrosine-protein kinase JAK2 (Homo sapiens, UniProt O60674);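 also: JAK2 tested as one member of a kinase panel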
Aurora kinase B = Aurora kinase B (Homo sapiens, UniProt Q96GD4)
[21] = target: Fibroblast growth factor receptor 1 (Homo sapiens, UniProt P11362)
[22] = target: Tyrosine-protein kinase receptor TYRO3 (Homo sapiens, UniProt Q06418);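 also: TYRO3 value obtained as one member of a kinome-wide profiling panel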
[23] = target: Casein kinase I isoform alpha (Homo sapiens, UniProt P48729)
[24] = target: Receptor-type tyrosine-protein kinase FLT3 (Homo sapiens, UniProt P36888);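 also: FLT3 was tested as one member of a kinome-wide kinase panel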
[25] = target: Dual specificity mitogen-activated protein kinase kinase 1 (Homo sapiens, UniProt Q02750); test: Navigating the Kinome. Panel member name: MAP2K1
[26] = target: Cyclin-dependent kinase 5 (Homo sapiens, UniProt Q00535);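 also: CDK5 measured as one member of a kinase profiling panel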
[27] = target: Serine/threonine-protein kinase TBK1 (Homo sapiens, UniProt Q9UHD2); test: Navigating the Kinome. Panel member name: TBK1
[28] = target: Vascular endothelial growth factor receptor 2 (Homo sapiens, UniProt P35968)
[29] = target: Mitogen-activated protein kinase 14 (Homo sapiens, UniProt Q16539);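 also: part of a kinome-wide panel, MAPK14 entry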
[30] = target: Mitogen-activated protein kinase 9 (Homo sapiens, UniProt P45984);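 also: value from a kinome panel profiling assay, MAPK9 panel entry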
[31] = target: Platelet-derived growth factor receptor beta (Homo sapiens, UniProt P09619);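 also: value comes from a kinome panel, with PDGFRB tested as one panel member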
[32] = target: Glycogen synthase kinase-3 alpha (Homo sapiens, UniProt P49840);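 also: GSK3A result taken from a broad kinome-wide kinase panel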
[33] = target: Mitogen-activated protein kinase kinase kinase kinase 2 (Homo sapiens, UniProt Q12851);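 also: measured as one member of a kinome-wide kinase panel, with MAP4K2 as the panel entry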
Chain of Mitogen-activated protein kinase kinase kinase kinase 2 (Q12851 whole entry): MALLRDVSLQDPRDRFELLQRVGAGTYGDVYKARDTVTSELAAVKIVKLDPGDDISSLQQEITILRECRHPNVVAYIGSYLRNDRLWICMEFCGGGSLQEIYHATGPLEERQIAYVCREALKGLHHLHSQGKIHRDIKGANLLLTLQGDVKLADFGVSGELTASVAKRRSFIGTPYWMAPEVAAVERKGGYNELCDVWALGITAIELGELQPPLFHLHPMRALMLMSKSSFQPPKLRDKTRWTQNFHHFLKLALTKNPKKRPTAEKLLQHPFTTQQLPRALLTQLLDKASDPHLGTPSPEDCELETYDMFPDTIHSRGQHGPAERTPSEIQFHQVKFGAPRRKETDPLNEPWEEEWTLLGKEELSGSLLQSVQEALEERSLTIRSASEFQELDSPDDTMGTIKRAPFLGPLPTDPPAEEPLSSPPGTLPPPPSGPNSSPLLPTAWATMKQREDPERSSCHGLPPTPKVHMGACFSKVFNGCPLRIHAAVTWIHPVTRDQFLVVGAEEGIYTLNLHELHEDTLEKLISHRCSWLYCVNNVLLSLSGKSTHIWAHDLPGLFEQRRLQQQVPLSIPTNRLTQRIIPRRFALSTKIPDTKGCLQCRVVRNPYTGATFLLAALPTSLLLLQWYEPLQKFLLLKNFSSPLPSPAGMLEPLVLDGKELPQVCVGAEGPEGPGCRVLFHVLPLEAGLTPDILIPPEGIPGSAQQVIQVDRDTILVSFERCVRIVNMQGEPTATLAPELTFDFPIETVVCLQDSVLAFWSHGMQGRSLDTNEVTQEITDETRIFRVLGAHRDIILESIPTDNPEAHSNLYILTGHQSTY

[34] = target: Calcium/calmodulin-dependent protein kinase type II subunit alpha (Homo sapiens, UniProt Q9UQM7); test: Navigating the Kinome. Panel member name: CAMK2A
[35] = target: Serine/threonine-protein kinase TAO1 (Homo sapiens, UniProt Q7L7X3)
[36] = target: 5'-AMP-activated protein kinase catalytic subunit alpha-1 (Homo sapiens, UniProt Q13131)
Activated CDC42 kinase 1 = Activated CDC42 kinase 1 (Homo sapiens, UniProt Q07912); test: Navigating the Kinome. Panel member name: ACK1
[37] = target: Insulin-like growth factor 1 receptor (Homo sapiens, UniProt P08069); test: Navigating the Kinome. Panel member name: IGF1R
Chain of Insulin-like growth factor 1 receptor (P08069 31-736 limits assumed): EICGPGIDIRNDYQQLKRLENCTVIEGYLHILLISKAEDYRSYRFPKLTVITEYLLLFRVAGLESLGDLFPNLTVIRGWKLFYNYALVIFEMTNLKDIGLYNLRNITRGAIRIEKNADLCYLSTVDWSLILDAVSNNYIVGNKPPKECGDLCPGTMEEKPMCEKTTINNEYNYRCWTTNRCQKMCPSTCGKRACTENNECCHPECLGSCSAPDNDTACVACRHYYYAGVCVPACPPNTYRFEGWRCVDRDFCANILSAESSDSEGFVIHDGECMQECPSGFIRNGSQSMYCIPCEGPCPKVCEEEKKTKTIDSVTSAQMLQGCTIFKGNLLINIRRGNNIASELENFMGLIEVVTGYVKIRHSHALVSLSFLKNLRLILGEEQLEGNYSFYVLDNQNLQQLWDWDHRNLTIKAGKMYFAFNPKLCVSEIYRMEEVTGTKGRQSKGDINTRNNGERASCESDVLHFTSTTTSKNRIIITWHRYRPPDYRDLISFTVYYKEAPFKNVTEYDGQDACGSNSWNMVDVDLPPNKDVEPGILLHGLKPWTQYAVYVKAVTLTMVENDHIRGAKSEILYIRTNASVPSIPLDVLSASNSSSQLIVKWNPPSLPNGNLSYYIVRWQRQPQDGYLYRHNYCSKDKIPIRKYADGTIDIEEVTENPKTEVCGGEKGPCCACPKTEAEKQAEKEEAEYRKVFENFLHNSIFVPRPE
Chain of Insulin-like growth factor 1 receptor (P08069 741-1367 limits assumed): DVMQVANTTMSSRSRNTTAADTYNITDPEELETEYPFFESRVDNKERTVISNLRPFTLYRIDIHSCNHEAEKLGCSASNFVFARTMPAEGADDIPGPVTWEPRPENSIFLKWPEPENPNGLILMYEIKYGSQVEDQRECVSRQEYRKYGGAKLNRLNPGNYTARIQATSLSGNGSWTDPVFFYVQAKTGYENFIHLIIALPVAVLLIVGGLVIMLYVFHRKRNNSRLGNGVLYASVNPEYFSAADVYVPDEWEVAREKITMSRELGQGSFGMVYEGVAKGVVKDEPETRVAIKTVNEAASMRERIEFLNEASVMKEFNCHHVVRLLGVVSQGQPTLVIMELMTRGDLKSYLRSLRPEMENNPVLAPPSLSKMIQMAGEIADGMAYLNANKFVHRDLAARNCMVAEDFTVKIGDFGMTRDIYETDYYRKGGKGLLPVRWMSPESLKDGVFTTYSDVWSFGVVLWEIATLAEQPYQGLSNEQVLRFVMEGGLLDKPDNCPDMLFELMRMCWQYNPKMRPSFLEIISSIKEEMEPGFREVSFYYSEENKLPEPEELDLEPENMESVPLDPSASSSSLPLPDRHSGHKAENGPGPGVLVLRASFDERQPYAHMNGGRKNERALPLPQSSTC

[38] = target: Macrophage colony-stimulating factor 1 receptor (Homo sapiens, UniProt P07333);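 also: value comes from the Navigating the Kinome screening panel, CSF1R member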
Chain of Macrophage colony-stimulating factor 1 receptor (P07333 whole entry): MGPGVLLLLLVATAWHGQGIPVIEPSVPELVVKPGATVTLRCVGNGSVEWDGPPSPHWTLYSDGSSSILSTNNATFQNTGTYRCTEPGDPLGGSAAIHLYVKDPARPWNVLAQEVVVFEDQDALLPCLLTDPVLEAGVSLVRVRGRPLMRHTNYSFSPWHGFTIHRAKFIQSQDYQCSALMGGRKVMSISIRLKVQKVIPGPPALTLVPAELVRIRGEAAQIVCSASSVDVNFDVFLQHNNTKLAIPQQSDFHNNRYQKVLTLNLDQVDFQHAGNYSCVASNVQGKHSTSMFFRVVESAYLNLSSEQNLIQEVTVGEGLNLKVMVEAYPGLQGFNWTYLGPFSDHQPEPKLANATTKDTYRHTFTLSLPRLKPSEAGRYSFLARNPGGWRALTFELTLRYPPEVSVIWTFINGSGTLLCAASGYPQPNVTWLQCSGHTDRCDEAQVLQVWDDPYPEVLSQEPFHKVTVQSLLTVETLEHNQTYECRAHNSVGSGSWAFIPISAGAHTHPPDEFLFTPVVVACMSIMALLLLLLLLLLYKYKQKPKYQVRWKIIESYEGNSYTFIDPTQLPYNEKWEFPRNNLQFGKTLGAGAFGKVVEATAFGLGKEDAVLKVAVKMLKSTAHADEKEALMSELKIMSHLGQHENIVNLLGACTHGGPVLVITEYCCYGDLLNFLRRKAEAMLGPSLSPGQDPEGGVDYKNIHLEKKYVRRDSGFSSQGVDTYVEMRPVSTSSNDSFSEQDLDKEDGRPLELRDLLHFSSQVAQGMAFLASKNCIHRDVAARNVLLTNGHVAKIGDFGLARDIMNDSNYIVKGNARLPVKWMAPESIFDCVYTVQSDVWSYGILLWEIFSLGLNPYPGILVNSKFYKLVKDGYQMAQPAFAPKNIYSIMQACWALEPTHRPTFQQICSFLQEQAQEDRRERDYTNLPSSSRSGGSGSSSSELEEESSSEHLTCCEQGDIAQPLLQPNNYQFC

[39] = target: Tyrosine-protein kinase JAK3 (Homo sapiens, UniProt P52333)
[40] = target: Death-associated protein kinase 3 (Homo sapiens, UniProt O43293);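 also: measured as one member of a kinome-wide profiling panel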
[41] = target: High affinity nerve growth factor receptor (Homo sapiens, UniProt P04629);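 also: NTRK1 tested as one member of a kinome-wide profiling panel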
[42] = target: Cyclin-dependent kinase 8 (Homo sapiens, UniProt P49336); test: Navigating the Kinome. Panel member name: CDK8
[43] = target: Rho-associated protein kinase 1 (Homo sapiens, UniProt Q13464);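 also: measured within a broad kinome-wide panel profiling many kinases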
[44] = target: cAMP-dependent protein kinase catalytic subunit alpha (Homo sapiens, UniProt P17612)
[45] = target: Protein kinase C theta type (Homo sapiens, UniProt Q04759); test: Navigating the Kinome. Panel member name: PRKCQ
[46] = target: Dual specificity protein kinase CLK4 (Homo sapiens, UniProt Q9HAZ1)
[47] = target: Platelet-derived growth factor receptor alpha (Homo sapiens, UniProt P16234); test: Navigating the Kinome. Panel member name: PDGFRA
[48] = target: Tyrosine-protein kinase Fyn (Homo sapiens, UniProt P06241)
[49] = target: Tyrosine-protein kinase Lck (Homo sapiens, UniProt P06239);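 also: lck was assayed as one member of a kinase panel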
Chain of Tyrosine-protein kinase Lck (P06239 whole entry, the tested form may be a part): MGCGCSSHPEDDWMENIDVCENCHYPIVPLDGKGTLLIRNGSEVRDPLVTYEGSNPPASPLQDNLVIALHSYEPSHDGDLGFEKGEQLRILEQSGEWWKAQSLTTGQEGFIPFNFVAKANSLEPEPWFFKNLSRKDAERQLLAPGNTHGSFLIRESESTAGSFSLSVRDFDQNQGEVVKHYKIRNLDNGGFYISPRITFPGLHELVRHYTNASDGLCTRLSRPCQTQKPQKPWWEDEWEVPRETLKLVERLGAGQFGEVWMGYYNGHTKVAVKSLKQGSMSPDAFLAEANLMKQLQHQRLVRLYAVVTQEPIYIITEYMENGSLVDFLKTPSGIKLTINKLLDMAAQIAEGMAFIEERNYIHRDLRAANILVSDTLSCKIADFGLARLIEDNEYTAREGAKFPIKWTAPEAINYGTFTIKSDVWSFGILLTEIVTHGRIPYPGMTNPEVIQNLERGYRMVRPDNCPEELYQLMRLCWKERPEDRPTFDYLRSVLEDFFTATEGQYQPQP

LIM domain kinase 1 = LIM domain kinase 1 (Homo sapiens, UniProt P53667); test: Navigating the Kinome. Panel member name: LIMK1
Activin receptor type-1 = Activin receptor type-1 (Homo sapiens, UniProt Q04771); test: Navigating the Kinome. Panel member name: ACVR1
[50] = target: Cyclin-dependent kinase 7 (Homo sapiens, UniProt P50613);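 also: value comes from a kinome-wide kinase profiling panel in which CDK7 is one member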
[51] = target: Macrophage-stimulating protein receptor (Homo sapiens, UniProt Q04912); test: Navigating the Kinome. Panel member name: MST1R
[52] = target: Dual specificity tyrosine-phosphorylation-regulated kinase 1A (Homo sapiens, UniProt Q13627);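 also: measured against DYRK1A as one member of a broad kinome profiling panel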
[53] = target: Serine/threonine-protein kinase Nek2 (Homo sapiens, UniProt P51955)
[54] = target: Dual specificity protein kinase CLK2 (Homo sapiens, UniProt P49760)
[55] = target: Serine/threonine-protein kinase D3 (Homo sapiens, UniProt O94806);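 also: determined within a kinase panel screen, with PRKCN as the panel member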
Chain of Serine/threonine-protein kinase D3 (O94806 whole entry): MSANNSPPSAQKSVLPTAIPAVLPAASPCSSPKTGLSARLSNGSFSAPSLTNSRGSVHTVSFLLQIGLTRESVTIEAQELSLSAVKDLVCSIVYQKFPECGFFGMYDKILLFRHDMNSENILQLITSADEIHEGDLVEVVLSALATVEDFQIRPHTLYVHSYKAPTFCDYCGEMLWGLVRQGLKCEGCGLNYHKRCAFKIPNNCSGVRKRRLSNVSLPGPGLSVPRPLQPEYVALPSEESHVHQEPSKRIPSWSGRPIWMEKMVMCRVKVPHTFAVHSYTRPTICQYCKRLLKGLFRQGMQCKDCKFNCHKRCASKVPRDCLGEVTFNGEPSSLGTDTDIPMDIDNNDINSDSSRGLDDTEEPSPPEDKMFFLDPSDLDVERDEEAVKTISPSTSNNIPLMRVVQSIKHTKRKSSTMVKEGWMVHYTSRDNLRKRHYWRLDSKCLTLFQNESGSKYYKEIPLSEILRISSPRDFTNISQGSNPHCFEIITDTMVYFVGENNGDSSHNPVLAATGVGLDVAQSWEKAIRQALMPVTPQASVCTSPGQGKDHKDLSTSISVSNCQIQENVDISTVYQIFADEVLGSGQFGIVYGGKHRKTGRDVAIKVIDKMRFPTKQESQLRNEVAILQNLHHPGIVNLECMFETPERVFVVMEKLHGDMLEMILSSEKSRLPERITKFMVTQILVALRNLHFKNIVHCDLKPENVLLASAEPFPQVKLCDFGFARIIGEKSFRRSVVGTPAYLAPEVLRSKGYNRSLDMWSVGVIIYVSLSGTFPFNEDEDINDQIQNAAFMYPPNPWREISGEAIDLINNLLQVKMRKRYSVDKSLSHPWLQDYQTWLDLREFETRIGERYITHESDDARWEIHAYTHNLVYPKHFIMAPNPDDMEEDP

- IC50 [1]: 8.72 µM (active)
- IC50 [2]: 5.77 µM (active)
Structure (SMILES): COc1ccc(C(CNC(=O)c2cccc(S(=O)(=O)Nc3ccc(C)cc3)c2)N2CCCCC2)cc1 (stereo not given)

- Ki [3]: 2.51 µM (active)
- Ki [4]: > 6.31 µM (inactive)
- Ki [5]: 1.58 µM (active)
- Ki [6]: 1.26 µM (active)
- Ki [7]: 0.794 µM (active)
- Ki (Aurora kinase A): 1.58 µM (active)
- Ki [8]: 2 µM (active)
- Ki [9]: 0.316 µM (active)
- Ki [10]: > 3.16 µM (inactive)
- Ki [11]: 1.26 µM (active)
- Ki [12]: 0.0316 µM (active)
- Ki [13]: 0.631 µM (active)
- Ki [14]: > 2.51 µM (inactive)
- Ki [15]: 0.501 µM (active)
- Ki [16]: 2 µM (active)
- Ki [17]: > 3.16 µM (inactive)
- Ki [18]: > 5.01 µM (inactive)
- Ki [19]: 0.126 µM (active)
- Ki [20]: > 2.51 µM (inactive)
- Ki (Aurora kinase B): 0.501 µM (active)
- Ki [21]: 3.16 µM (active)
- Ki [22]: 2.51 µM (active)
- Ki [23]: 0.0398 µM (active)
- Ki [24]: 0.1 µM (active)
- Ki [25]: 1 µM (active)
- Ki [26]: > 3.16 µM (inactive)
- Ki [27]: 0.794 µM (active)
- Ki [28]: 0.158 µM (active)
- Ki [29]: > 3.98 µM (inactive)
- Ki [30]: > 3.98 µM (inactive)
- Ki [31]: 0.316 µM (active)
- Ki [32]: 0.0794 µM (active)
- Ki [33]: 1.58 µM (active)
- Ki [34]: > 3.98 µM (inactive)
- Ki [35]: > 6.31 µM (inactive)
- Ki [36]: 1.26 µM (active)
- Ki (Activated CDC42 kinase 1): > 3.98 µM (inactive)
- Ki [37]: > 2.51 µM (inactive)
- Ki [38]: 0.126 µM (active)
- Ki [39]: > 5.01 µM (inactive)
- Ki [41]: > 3.16 µM (inactive)
- Ki [42]: > 3.98 µM (inactive)
- Ki [43]: 2 µM (active)
- Ki [44]: > 1.26 µM (inactive)
- Ki [45]: > 2.51 µM (inactive)
- Ki [46]: 0.0316 µM (active)
- Ki [47]: > 2.51 µM (inactive)
- Ki [48]: > 6.31 µM (inactive)
- Ki [49]: > 6.31 µM (inactive)
- Ki (LIM domain kinase 1): > 3.16 µM (inactive)
- Ki (Activin receptor type-1): 2 µM (active)
- Ki [50]: 0.0398 µM (active)
- Ki [51]: 0.316 µM (active)
- Ki [52]: 0.1 µM (active)
- Ki [53]: > 3.16 µM (inactive)
- Ki [54]: 0.398 µM (active)
- Ki [55]: 3.16 µM (active)
Structure (SMILES): N#Cc1ccc2c(c1)C(c1ccc3c(n1)CCCC3O)C(=O)N2 (stereo not given)
- Ki [40]: 1.26 µM (active)
